Consider seven molecules from ChEMBL document CHEMBL5036370, “Indole-Containing Pyrazino[2,1-b]quinazoline-3,6-diones Active against Plasmodium and Trypanosomatids” (ACS Med Chem Lett, 2022).

A word on the IC50: it is the concentration that inhibits the measured activity by half. The term EC50 denotes the concentration giving half of the maximal effect.

The structures appear in SMILES notation. Activity calls are given as the source filed them. The calls are words filed in the database; no cut-off is given here.

The nature of data set [1]: Hemolytic activity against human erythrocytes at <=10 uM incubated for 1 hr by microplate reader assay. The data set is classed as ADME, tissue-based. Conditions: erythrocyte.
A further data set has as its system V79. The data set is described as follows: (§1) Cytotoxicity against Chinese hamster V79 cells measured after 24 hrs by MTT assay. The data set is classed as cell-based, Cricetulus griseus. Conditions: v79, 24 h. A general note: Tetrazolium assays rely on reduction of a dye to a coloured formazan, in cell work by metabolically active cells.
Data set [2] can be described thus: Cytotoxicity against human THP-1 cells assessed as reduction in cell viability measured after 72 hrs by MTT assay. It is filed as cell-based.
The test system of data set [3] is Trypanosoma brucei. The data set is described as follows: Antitrypanosomal activity against bloodstream form of Trypanosoma brucei Lister 427 assessed as parasite growth inhibition incubated for 72 hrs by resazurin staining based assay. The data set is classed as functional, organism-based. Conditions: Lister 427, 72 h. On the technique in general: The colour change of resazurin is a common sign of viable cells or microbes.

A short description of data set [4]: Selectivity index, ratio of CC50 for cytotoxicity against human THP-1 cells to IC50 for antitrypanosomal activity against bloodstream form of Trypanosoma brucei Lister 427. Conditions: read-out: Ratio CC50/IC50. It is filed as toxicity, cell-based.
Data set [5] deals with Plasmodium falciparum. The data set is described as follows: Antimalarial activity against CQ-sensitive Plasmodium falciparum 3D7 assessed as parasite growth inhibition incubated for 48 hrs by SYBR Green I dye based fluorescence assay. The data set is classed as functional, organism-based. Conditions: 3D7, 48 h.
Data set [6] relates to Leishmania infantum. The data set is described as follows: Antileishmanial activity against axenic amastigote stage of Leishmania infantum infected in THP-1 cells assessed as reduction in parasite growth incubated for 72 hrs by luminescence analysis. The data set is classed as functional, organism-based. Conditions: THP-1, 72 h.
Data set [7] in a line: Selectivity index, ratio of CC50 for cytotoxicity against human THP-1 cells to IC50 for antileishmanial activity against axenic amastigote stage of Leishmania infantum infected in THP-1 cells. The data set is classed as toxicity, cell-based. The conditions noted are these: read-out: Ratio CC50/IC50.
A short description of data set [8]: Selectivity index, ratio of LD50 for cytotoxicity against Chinese hamster V79 cells to IC50 for antimalarial activity against CQ-sensitive Plasmodium falciparum 3D7. Conditions: V79 cells versus Plasmodium falciparum 3D7, read-out: Ratio LD50/IC50. The data set is classed as toxicity, cell-based.
Data set [9] can be described thus: as §1. It is filed as cell-based, Cricetulus griseus. Conditions: V79 cells, read-out: LD50.
Data set [10] is described as follows: Hemolytic activity against human erythrocytes at 0.04 to 10 uM incubated for 1 hr by microplate reader assay. The data set is classed as ADME, tissue-based, Erythrocyte. The conditions noted are these: dose 0.04-10 µM, read-out: Activity.
Data set [11] has as its system Hemozoin. The data set is described as follows: Inhibition of Beta-hematin formation at 12 to 48 uM after 24 hrs by microplate reader assay. The conditions noted are these: dose 12-48 µM.
Data set [12] has as its system Trypanosoma brucei. The data set is described as follows: Antitrypanosomal activity against bloodstream form of Trypanosoma brucei Lister 427 assessed as parasite growth inhibition at 10 uM incubated for 72 hrs by resazurin staining based assay. The data set is classed as functional, organism-based.
In data set [13] the test system is Leishmania infantum. The data set is described as follows: Antileishmanial activity against axenic amastigote stage of Leishmania infantum infected in THP-1 cells assessed as reduction in parasite growth at 10 uM incubated for 72 hrs by luminescence analysis. The data set is classed as functional, organism-based.
For data set [14], the system named is Plasmodium falciparum. The data set is described as follows: Antiplasmodial activity against Plasmodium falciparum 3D7 infected in erythrocytes assessed as parasite growth inhibition measured after 72 hrs by LDH assay. The data set is classed as functional, organism-based. Conditions: 3D7, Erythrocyte.
A further data set deals with HepG2. The data set is described as follows: Cytotoxicity against human HepG2 cells. The data set is classed as cell-based.
The test system of data set [15] is Hemozoin. The data set is described as follows: Inhibition of Beta-hematin formation at 24 to 96 uM after 24 hrs by microplate reader assay. Conditions: dose 24-96 µM.

On to `CCN(CC)CCCC(C)Nc1ccnc2cc(Cl)ccc12` (stereo not given) [CHLOROQUINE], for which the Activity entry in [1] is given as “Non-Toxic”.
On to `CC(C)C[C@@H]1NC(=O)[C@@H](Cc2c[nH]c3ccccc23)n2c1nc1ccc(I)cc1c2=O`, for which the LD50 entry with V79 is on record as “Not Active”. Moreover, in [2], the CC50 at 72 h turned out to be 50 µM. The IC50 was 4.1 µM in the data set with Trypanosoma brucei [3], greater than 10 µM in the data set on Plasmodium falciparum [5] and 7.4 µM in the data set with Leishmania infantum [6]. The selectivity ratio in [4] was 12.2; in data set [7], 6.7.
In the case of `CC(C)[C@@H]1NC(=O)[C@@H](Cc2c[nH]c3ccccc23)n2c1nc1ccccc1c2=O`, in [8], the selectivity ratio came out at 19. In addition, in data set [9], the CC50 at 24 h was found to be 1.91 µM. The CC50 at 72 h in [2] was greater than 100 µM. Moreover, in the data set on Plasmodium falciparum [5], the IC50 is 0.1 µM. Further, in data set [10], the hemolysis at 1 h, up to 10 µM is less than 6%. In addition, the Activity entry in [1] is recorded as “Non-Toxic”. The inhibition result in the data set on Hemozoin [11], in the data set with Trypanosoma brucei [12] and in the data set on Leishmania infantum [13] was “inactive” each time.
`CC(C)C[C@H]1NC(=O)[C@@H](Cc2c[nH]c3ccccc23)n2c1nc1ccccc1c2=O`: in the data set on V79, the LD50 result was “Not Active”. In [2], the CC50 at 72 h was 25 µM. Further, the IC50 amounted to 0.38 µM with Trypanosoma brucei [3], 0.47 µM with Plasmodium falciparum [5] and 2.6 µM in the data set with Leishmania infantum [6]. Moreover, the selectivity ratio worked out at 65.7 in data set [4] and 9.6 in data set [7].
Take `CC(C)C[C@@H]1NC(=O)[C@@H](Cc2c[nH]c3ccccc23)n2c1nc1ccccc1c2=O`: the selectivity ratio in data set [8] was 34. In data set [9], the CC50 at 24 h is 1.78 µM. Also, the CC50 at 72 h in [2] is greater than 100 µM. Also, the IC50 in the data set on Plasmodium falciparum [5] was 0.05 µM. For the same molecule, the hemolysis at 1 h, up to 10 µM in data set [10] was less than 6%. Moreover, the Activity result in [1] was “Non-Toxic”. Besides, the inhibition entry in the data set on Hemozoin [11], with Trypanosoma brucei [12] and in the data set with Leishmania infantum [13] was “inactive” in each case.
On to `Clc1ccc2nccc(N3CCC(CN4CCC(c5c[nH]c6ccccc56)CC4)CC3)c2c1`, for which the EC50 in the data set with Plasmodium falciparum [14] was 0.034 µM; in the data set with HepG2, greater than 10 µM.
Regarding `CC(C)C[C@@H]1NC(=O)[C@@H](Cc2c[nH]c3ccccc23)n2c1nc1cc(Cl)c(Cl)cc1c2=O`, the values for the selectivity ratio in [8] and in data set [4] were 70 and 4.2, respectively. For the same molecule, the inhibition result in the data set with Hemozoin [15] and in the data set on Leishmania infantum [13] was “inactive” throughout. Also, in data set [9], the CC50 at 24 h was found to be 14 µM. Also, in [2], the CC50 at 72 h amounted to 25 µM. Further, the figures for the IC50 with Trypanosoma brucei [3] and with Plasmodium falciparum [5] were 5.9 µM and 0.2 µM, respectively. For the same molecule, in [10], the hemolysis at 1 h, up to 10 µM is less than 6%. Also, the Activity result in data set [1] is “Non-Toxic”.
